Test system: M. trichosporium OB3b culture
Assay: CP exposure of culture immobilized in alginate beads, sequencing batch reactors
Type: cell-based
Conditions: for MeOH Accumulation Efficiency (MeOH accumulation/CH4 consumed): initial 24 hours of incubation with CH4
Description: In some embodiments, M. trichosporium OB3b culture was immobilized in alginate beads. M. trichosporium OB3b culture expressing sMMO was harvested and suspended to a final density of 10 g cell protein/L in 2% alginate. The alginate/cell mixture was extruded through a syringe needle into 100 mM CaCl2 to crosslink the alginate matrix, forming stable beads. Beads were rinsed with dH2O and re-suspended in 1/10 strength (dilute) growth media. M. trichosporium OB3b culture prepared this way is ideal for experimental manipulation such as CH4 or MeOH rate determinations after inhibitor exposure because beads can be quickly rinsed to remove trace inhibitor. OB3b culture immobilized in alginate in this way maintained activity for >7 days.
A chemostat grown, sMMO expressing, M. trichosporium OB3b culture was immobilized in alginate beads, and exposed to CP for 2, 6, and 18 hours in the absence of CH4. After inhibition, the consumption of CH4 and accumulation of MeOH was monitored in the presence and absence of 20 mM formate in sequencing batch reactors (FIGS. 37A-37C). Alginate beads were rinsed, at 24 hour intervals, before suspension in fresh media plus CH4. There was no significant difference: i) in the rate of methane consumption in the treatments that were exposed to CP for 2, 6 or 18 h (p>0.5, 30-80 μmol CH4 consumed/d, Table 2); ii) in the efficiency of MeOH accumulation in any of the treatments (Table 2); and, in the effect of formate on MeOH accumulation (P>0.18) for any exposure time, probably due to lack of complete MDH inhibition (Table 3). It was also observed that MeOH accumulated to a greater degree during days 2 and 3 in treatments after 6 or 18 hours of CP exposure.

With `C1CC1` [CP, cyclopropane] the “Rates of MeOH consumption, Post Exposure” value (CP exposure 2 h) was 0.4 (0.0) μmol/h/mg protein, the “MeOH Accumulation Efficiency (MeOH accumulation/CH4 consumed)” value (shortened to “MeOH Accumulation Efficiency”) (CP exposure 2 h) was 19 (4) % and the “Rates of MeOH consumption, Post Exposure” value (CP exposure 6 h) was 0.6 (0.1) μmol/h/mg protein. For the same compound, the “MeOH Accumulation Efficiency” value (CP exposure 6 h) was 43 (1) %, the “Rates of MeOH consumption, Post Exposure” value (CP exposure 18 h) was 0.3 (0.1) μmol/h/mg protein and the “MeOH Accumulation Efficiency” value (CP exposure 18 h) was 13 (1) %. The “rate of methane consumption” value (treatments exposed to CP for 2, 6 or 18 h) was 30-80 μmol CH4 consumed/d.

Source: patent US20180258381A1, “BIO-LAMINA BIOREACTORS AND METHODS OF MAKING AND USING THE SAME” (Oregon State University, priority 2015, published 2018)
